The conditions of series [1]: in vivo.
In the next series the test system is rabbits (eye). The settings on record: rabbit, in vivo.
A further series has as its system rabbits (dermal). As to conditions: rabbit, in vivo.

On to PPG-20 Methyl Glucose Ether Distearate, for which, in series [1], the “Comedogenic Assay” value was “Non-comedogenic”. Moreover, in the series with rabbits (eye), the Draize test score result is listed as “negligible” and the Eye irritation entry was “Practically non-irritating”. Moreover, in the series with rabbits (dermal), the Primary dermal irritant entry was “not a primary dermal irritant” and the Primary dermal irritation entry is given as “Not a primary dermal irritant”.

Source of the values: patent US4687843A, “Esterified propoxylated glucose compositions” (Amerchol Corporation, priority 1986, dated 1987).
